# Source: patent US8680133B2, “Alkyl indole-3-carbinol-derived antitumor agents” (The Ohio State University Research Foundation, priority 2009, dated 2014)
# Columns and labels:
# [1] = system: K-562; test: NCI60 screening, Leukemia, K-562; assay type: cell-based, human
# [2] = system: SR; test: NCI60 screening, Leukemia, SR; assay type: cell-based, human
# [3] = system: HOP-92; test: NCI60 screening, Non-Small Cell Lung Cancer, HOP-92; assay type: cell-based, human
# [4] = system: NCI-H23; test: NCI60 screening, Non-Small Cell Lung Cancer, NCI-H23; assay type: cell-based, human
# [5] = system: NCI-H522; test: NCI60 screening, Non-Small Cell Lung Cancer, NCI-H522; assay type: cell-based, human
# [6] = system: COLO 205; test: NCI60 screening, Colon Cancer, COLO 205; assay type: cell-based, human
# [7] = system: HCC-2998; test: NCI60 screening, Colon Cancer, HCC-2998; assay type: cell-based, human
# [8] = system: HCT-116; test: NCI60 screening, Colon Cancer, HCT-116; assay type: cell-based, human
# [9] = system: MALME-3M; test: NCI60 screening, Melanoma, MALME-3M; assay type: cell-based, human
# [10] = system: SK-MEL-2; test: NCI60 screening, Melanoma, SK-MEL-2; assay type: cell-based, human
# [11] = system: UACC-257; test: NCI60 screening, Melanoma, UACC-257; assay type: cell-based, human
# [12] = system: SK-OV-3; test: NCI60 screening, Ovarian Cancer, SK-OV-3; assay type: cell-based, human
# [13] = system: A498; test: NCI60 screening, Renal Cancer, A498; assay type: cell-based, human
# [14] = system: MCF7; test: NCI60 screening, Breast Cancer, MCF7; assay type: cell-based, human
# [15] = system: PC-3 xenograft tumor; test: PC-3 xenograft tumor growth in nude mice, oral gavage; assay type: in vivo; settings: after 7 weeks, P<0.05
# Method: FIG. 2 provides three graphs (A-C) showing the in vivo effects of OSU-A9M (C) versus OSU-A9 (A) and OSU-A9 F (B), each at 25 and 50 mg/kg per day by oral gavage, on suppressing PC-3 xenograft tumor growth in nude mice (n=6).
# The efficacy studies were therefore repeated with OSU-A9M and OSU-A9F, following 42 days and 49 days treatment, respectively, versus OSU-A9 with 49-day treatment.
# In all three treatments, the body weights of drug-treated mice were not affected. No signs of overt toxicity were observed.
# [16] = system: PC-3 xenograft tumor; test: PC-3 xenograft tumor growth in nude mice, 450 ppm in the diet; assay type: in vivo; settings: 450 ppm in AIN-76A rodent diet, vs control diet, P<0.05
# Method: FIG. 3 provides a graph showing the in vivo efficacy of dietary OSU-A9M at 450 ppm in a rodent diet in suppressing PC-3 xenograft tumor growth in nude mice.
# (§1) Given the increased potency of OSU-A9M compared to the other lead derivatives, an experimental diet was formulated. An AIN-76A rodent diet (American Institute of Nutrition; including primarily casein, sucrose, and corn starch) containing 450 ppm OSU-A9M was made to deliver approximately 50 mg/kg of drug per day to each mouse estimated by food consumption and body weight measurements.
# [17] = Body weight of PC-3 xenograft mice receiving the experimental diet; assay type: in vivo, nude mice; settings: 450 ppm in diet, compared to controls
# Method: as §1
# [18] = Homo sapiens, read-out: LC50 (the source's name)
compound,measurement,setting,value
"Cc1ccc2c(c1)c(CO)cn2S(=O)(=O)c1ccc(Cl)c([N+](=O)[O-])c1 [OSU-A9M, [1-(4-chloro-3-nitro-benzenesulfonyl)-5-methyl-1H-indol-3-yl]-methanol]",TGI,[1],3.03E−6
same,GI50,"[1]; Homo sapiens, K562",1020 nM
same,CC50,"[1]; Homo sapiens, K562, read-out: LC50 (the source's name)",8960 nM
same,Percent Growth,[1]; Log10 Concentration −4.0,−70%
same,Percent Growth,[1]; Log10 Concentration −5.0,−55%
same,Percent Growth,[1]; Log10 Concentration −6.0,51%
same,Percent Growth,[1]; Log10 Concentration −7.0,106%
same,Percent Growth,[1]; Log10 Concentration −8.0,98%
same,TGI,[2],2.47E−6
same,GI50,[2]; Homo sapiens,371 nM
same,CC50,[2]; [18],> 100000 nM
same,Percent Growth,[2]; Log10 Concentration −4.0,−46%
same,Percent Growth,[2]; Log10 Concentration −5.0,−25%
same,Percent Growth,[2]; Log10 Concentration −6.0,16%
same,Percent Growth,[2]; Log10 Concentration −7.0,94%
same,Percent Growth,[2]; Log10 Concentration −8.0,85%
same,TGI,[3],2.67E−6
same,GI50,[3]; Homo sapiens,1310 nM
same,CC50,[3]; [18],5430 nM
same,Percent Growth,[3]; Log10 Concentration −4.0,−97%
same,Percent Growth,[3]; Log10 Concentration −5.0,−93%
same,Percent Growth,[3]; Log10 Concentration −6.0,69%
same,Percent Growth,[3]; Log10 Concentration −7.0,76%
same,Percent Growth,[3]; Log10 Concentration −8.0,92%
same,TGI,[4],2.89E−6
same,GI50,[4]; Homo sapiens,1530 nM
same,CC50,[4]; [18],5460 nM
same,Percent Growth,[4]; Log10 Concentration −4.0,−96%
same,Percent Growth,[4]; Log10 Concentration −5.0,−97%
same,Percent Growth,[4]; Log10 Concentration −6.0,83%
same,Percent Growth,[4]; Log10 Concentration −7.0,90%
same,Percent Growth,[4]; Log10 Concentration −8.0,92%
same,TGI,[5],3.54E−7
same,GI50,[5]; Homo sapiens,145 nM
same,CC50,[5]; [18],861 nM
same,Percent Growth,[5]; Log10 Concentration −4.0,−96%
same,Percent Growth,[5]; Log10 Concentration −5.0,−96%
same,Percent Growth,[5]; Log10 Concentration −6.0,−58%
same,Percent Growth,[5]; Log10 Concentration −7.0,71%
same,Percent Growth,[5]; Log10 Concentration −8.0,77%
same,TGI,[6],3.14E−6
same,GI50,[6]; Homo sapiens,1700 nM
same,CC50,[6]; [18],5790 nM
same,Percent Growth,[6]; Log10 Concentration −4.0,−87%
same,Percent Growth,[6]; Log10 Concentration −5.0,−95%
same,Percent Growth,[6]; Log10 Concentration −6.0,93%
same,Percent Growth,[6]; Log10 Concentration −7.0,92%
same,Percent Growth,[6]; Log10 Concentration −8.0,98%
same,TGI,[7],2.73E−6
same,GI50,[7]; Homo sapiens,1420 nM
same,CC50,[7]; [18],5230 nM
same,Percent Growth,[7]; Log10 Concentration −4.0,−99%
same,Percent Growth,[7]; Log10 Concentration −5.0,−100%
same,Percent Growth,[7]; Log10 Concentration −6.0,77%
same,Percent Growth,[7]; Log10 Concentration −7.0,91%
same,Percent Growth,[7]; Log10 Concentration −8.0,96%
same,TGI,[8],1.57E−6
same,GI50,[8]; Homo sapiens,461 nM
same,LC50,[8]; Homo sapiens,3970 nM
same,Percent Growth,[8]; Log10 Concentration −4.0,−100%
same,Percent Growth,[8]; Log10 Concentration −5.0,−100%
same,Percent Growth,[8]; Log10 Concentration −6.0,24%
same,Percent Growth,[8]; Log10 Concentration −7.0,100%
same,Percent Growth,[8]; Log10 Concentration −8.0,101%
same,GI50,"[9]; Homo sapiens, Malme-3M",1870 nM
same,CC50,"[9]; Homo sapiens, Malme-3M, read-out: LC50 (the source's name)",9000 nM
same,TGI,[9]; MALME-3M,4.10E−6
same,Percent Growth,"[9]; MALME-3M, Log10 Concentration −4.0",−75%
same,Percent Growth,"[9]; MALME-3M, Log10 Concentration −5.0",−57%
same,Percent Growth,"[9]; MALME-3M, Log10 Concentration −6.0",90%
same,Percent Growth,"[9]; MALME-3M, Log10 Concentration −7.0",78%
same,Percent Growth,"[9]; MALME-3M, Log10 Concentration −8.0",83%
same,TGI,[10],3.04E−6
same,GI50,[10]; Homo sapiens,1600 nM
same,CC50,[10]; [18],5780 nM
same,Percent Growth,[10]; Log10 Concentration −4.0,−93%
same,Percent Growth,[10]; Log10 Concentration −5.0,−93%
same,Percent Growth,[10]; Log10 Concentration −6.0,86%
same,Percent Growth,[10]; Log10 Concentration −7.0,96%
same,Percent Growth,[10]; Log10 Concentration −8.0,102%
same,TGI,[11],3.31E−6
same,GI50,[11]; Homo sapiens,1720 nM
same,CC50,[11]; [18],6400 nM
same,Percent Growth,[11]; Log10 Concentration −4.0,−96%
same,Percent Growth,[11]; Log10 Concentration −5.0,−84%
same,Percent Growth,[11]; Log10 Concentration −6.0,91%
same,Percent Growth,[11]; Log10 Concentration −7.0,94%
same,Percent Growth,[11]; Log10 Concentration −8.0,96%
same,TGI,[12],3.06E−6
same,GI50,[12]; Homo sapiens,1670 nM
same,CC50,[12]; [18],5620 nM
same,Percent Growth,[12]; Log10 Concentration −4.0,−100%
same,Percent Growth,[12]; Log10 Concentration −5.0,−97%
same,Percent Growth,[12]; Log10 Concentration −6.0,92%
same,Percent Growth,[12]; Log10 Concentration −7.0,97%
same,Percent Growth,[12]; Log10 Concentration −8.0,95%
same,TGI,[13],2.79E−6
same,GI50,[13]; Homo sapiens,1330 nM
same,CC50,[13]; [18],5870 nM
same,Percent Growth,[13]; Log10 Concentration −4.0,−100%
same,Percent Growth,[13]; Log10 Concentration −5.0,−86%
same,Percent Growth,[13]; Log10 Concentration −6.0,69%
same,Percent Growth,[13]; Log10 Concentration −7.0,62%
same,Percent Growth,[13]; Log10 Concentration −8.0,75%
same,TGI,[14],2.21E−6
same,GI50,[14]; Homo sapiens,582 nM
same,CC50,[14]; [18],6090 nM
same,Percent Growth,[14]; Log10 Concentration −4.0,−82%
same,Percent Growth,[14]; Log10 Concentration −5.0,−75%
same,Percent Growth,[14]; Log10 Concentration −6.0,39%
same,Percent Growth,[14]; Log10 Concentration −7.0,85%
same,Percent Growth,[14]; Log10 Concentration −8.0,84%
same,Suppression of the volume of PC-3 tumor growth,[15]; 25 mg/kg per day by gavage,44.0%
same,Suppression of the volume of PC-3 tumor growth,[15]; 50 mg/kg per day by gavage,67.6%
same,Suppression of the growth of PC-3 xenograft tumors,[16],59.6%
same,Body weights of mice receiving the experimental diet,[17],unchanged compared to controls
